Laboratory results as given in US20090196871A1, “USE OF 4-PYRIDYLMETHYLPHTHALAZINES FOR CANCER TREATMENT” (priority 2001, published 2009).

Legend:
[1] = system: metastatic colorectal cancer; experiment: Example 1: combination with oxaplatin/folinic acid/5-fluorouracil chemotherapy in patients; type: in vivo, human
Procedure: 15 Patients with histologically confirmed metastatic colorectal cancer seven of which had previously received adjuvant chemotherapy are treated with a combination of 1-(4-chloro-anilino)-4-(4-pyridylmethyl)phthalazine and a chemotherapy regimen. The chemotherapy regimen is 85 mg/m^2 of oxaplatin on day 1, 200 mg/m^2 of folinic acid given as a 2 hour infusion on days 1 and 2, and S-fluorouracil administered as a bolus at a dose of 400 mg/m^2 followed by 600 mg/m^2 over 22 hours on days 1 and 2. The chemotherapy regimen is given every 14 days. […] The treatment is well-tolerated. […] Stable diseases are observed in 2 patients, minor responses in 3 patients and partial responses in 8 patients.

[2] = Example 3: pharmacokinetic study, twice-daily dosing
Procedure: (§1) The patients are monitored by dynamic contrast enhanced magnetic resonance imaging (DCE-MRI) of tumors to provide a measure of the bi-dimensional transfer constant (Ki) prior to treatment, on day 2 and after every 28 day cycle. In addition, tumor volume is measured by magnetic resonance imaging every 28 days, and full pharmacokinetic profiles are obtained on days 1 and 28.

[3] = clinical; conditions: human, plasma, po
[4] = system: metastatic renal cell carcinoma; experiment: Example 2: once-daily oral monotherapy in patients; type: in vivo, human; conditions: 300, 750 or 1000 mg/day once a day orally
Procedure: Ten patients having metastatic renal cell carcinoma, six of which had previous biologic therapy, are treated with 300, 750 or 1000 mg/day of 1-(4-chloroanilino)-4-(4-pyridyl-methyl)phthalazine administered once a day orally. Seven of the ten patients maintain stable disease for a median of 3 months.

[5] = clinical; conditions: human, in vivo, po
[6] = system: tumor vascular permeability; experiment: Studies in humans (general statement); parameters: species or system human; conditions: in vivo
[7] = system: advanced solid tumors; experiment: Example 4: once-daily oral dosing, Phase I, DCE-MRI, plasma VEGF, toxicity
[8] = system: advanced solid tumors; experiment: Example 3: twice-daily oral dosing, safety and DCE-MRI of tumors
Procedure: as §1

[9] = combination with chemotherapy, of 15 patients
[10] = among patients on 300, 500 and 1000 mg daily doses, twice daily

Structure (SMILES): Clc1ccc(Nc2nnc(Cc3ccncc3)c3ccccc23)cc1
- minor responses observed [1, 9]: 3 patients
- partial responses observed [1, 9]: 8 patients
- stable diseases observed [1, 9]: 2 patients
- tolerability of the treatment ([1]; combined with oxaplatin, folinic acid, 5-fluorouracil every 14 days, 500, 1000 or 2000 mg/day single daily dose, 15 patients): well-tolerated
- area under the curve (AUC) ([2]; 300 mg total daily dose): 82 ng·mL·h
- area under the curve (AUC) ([2]; 500 mg total daily dose): 46 ng·mL·h
- area under the curve (AUC) ([2]; 1000 mg total daily dose): 370 ng·mL·h
- AUC [3]: ~114 µM·h
- median duration of stable disease [4]: 3 months
- patients maintaining stable disease ([4]; of ten patients): Seven
- Tmax [5]: 1 to 2.5 h
- decrease of systemic exposure (AUC) at steady-state compared to day 1 [5]: approximately 30%
- dose up to which dose proportional increase in exposure is observed [5]: up to 1000 mg/day
- half-life [5]: 3 to 6 h
- effect on tumor vascular permeability in humans [6]: reduce tumor vascular permeability
- tolerability in humans [6]: well tolerated
- reduction in Ki (DCE-MRI) associated with non-progressive disease ([7]; colorectal cancer patients with liver metastasis): 50-60%
- rise in plasma VEGF levels ([7]; responders at doses >1000 mg/day, within the first 28 days of treatment): up to 5 fold
- dose-limiting toxicity ([7]; up to 2000 mg/day once daily): No dose-limiting toxicity
- grade 1 lethargy [8, 10]: one
- grade 2 lightheadedness [8, 10]: 4 patients
- transient grade 3 elevations of liver transaminases [8, 10]: 2 patients
- biological effect indicated by the study data ([8]; twice daily oral): reducing tumor perfusion/vascular permeability and slowing tumor growth
- tolerability / drug-related SAEs ([8]; twice daily oral, total daily doses 300-2000 mg): well tolerated with no drug-related SAEs
